Results from ChEMBL document CHEMBL3991601, “The target landscape of clinical kinase drugs” (Science, 2017).
Activity calls are given as the source filed them. For most assays here, no stated cut-off is given here; in the data, actives have a measured Kd and inactives only a lower limit.

target: Serine/threonine-protein kinase B-raf (Homo sapiens, UniProt P15056)
Sequence (P15056 whole entry): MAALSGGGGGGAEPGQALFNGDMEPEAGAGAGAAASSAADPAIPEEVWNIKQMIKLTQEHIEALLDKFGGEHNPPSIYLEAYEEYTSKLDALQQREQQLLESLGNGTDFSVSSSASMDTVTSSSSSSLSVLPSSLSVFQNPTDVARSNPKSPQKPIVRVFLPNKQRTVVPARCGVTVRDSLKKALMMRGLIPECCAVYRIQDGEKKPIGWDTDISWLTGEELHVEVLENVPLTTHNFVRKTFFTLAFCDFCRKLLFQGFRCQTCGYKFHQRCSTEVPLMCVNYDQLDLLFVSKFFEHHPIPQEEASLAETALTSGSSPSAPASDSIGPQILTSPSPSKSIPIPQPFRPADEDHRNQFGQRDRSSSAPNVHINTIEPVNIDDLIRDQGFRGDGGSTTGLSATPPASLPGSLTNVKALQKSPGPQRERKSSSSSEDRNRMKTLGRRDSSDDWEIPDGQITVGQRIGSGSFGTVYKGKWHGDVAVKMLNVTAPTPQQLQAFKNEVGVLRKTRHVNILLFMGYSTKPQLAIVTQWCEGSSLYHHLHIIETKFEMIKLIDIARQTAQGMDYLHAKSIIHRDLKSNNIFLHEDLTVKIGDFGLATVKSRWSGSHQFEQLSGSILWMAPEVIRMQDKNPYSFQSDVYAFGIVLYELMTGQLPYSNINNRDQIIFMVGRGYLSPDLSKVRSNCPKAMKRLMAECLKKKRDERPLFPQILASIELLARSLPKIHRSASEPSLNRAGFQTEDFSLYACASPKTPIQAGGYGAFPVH

Row | Compound | Kd
1 | Cc1ccc(S(=O)(=O)Nc2nc3ccccc3nc2Nc2ccc3nsnc3c2)cc1 | > 30 µM (inactive)
2 | CCN1CCN(Cc2ccc(-c3cc4c(N[C@H](C)c5ccccc5)ncnc4[nH]3)cc2)CC1 [AEE-788] | > 30 µM (inactive)
3 | Cn1ncc(Cl)c1-c1cc(C(=O)N[C@H](CN)Cc2cccc(F)c2)sc1Cl [AFURESERTIB] | > 30 µM (inactive)
4 | COc1cc(N2CCC(N3CCN(C)CC3)CC2)ccc1Nc1ncnc(Nc2ccccc2S(=O)(=O)C(C)C)n1 [ASP-3026] | > 30 µM (inactive)
5 | COc1cc(CCc2cc(NC(=O)c3ccc(N4C[C@@H](C)N[C@@H](C)C4)cc3)n[nH]2)cc(OC)c1 [AZD-4547] | > 30 µM (inactive)
6 | O=C(c1ccc(F)c(F)c1Nc1ccc(I)cc1F)N1CC(O)([C@@H]2CCCCN2)C1 [COBIMETINIB] | > 30 µM (inactive)

target: T1, NUAK family SNF1-like kinase 2 (Homo sapiens, UniProt Q9H093)
T1 sequence (Q9H093 whole entry): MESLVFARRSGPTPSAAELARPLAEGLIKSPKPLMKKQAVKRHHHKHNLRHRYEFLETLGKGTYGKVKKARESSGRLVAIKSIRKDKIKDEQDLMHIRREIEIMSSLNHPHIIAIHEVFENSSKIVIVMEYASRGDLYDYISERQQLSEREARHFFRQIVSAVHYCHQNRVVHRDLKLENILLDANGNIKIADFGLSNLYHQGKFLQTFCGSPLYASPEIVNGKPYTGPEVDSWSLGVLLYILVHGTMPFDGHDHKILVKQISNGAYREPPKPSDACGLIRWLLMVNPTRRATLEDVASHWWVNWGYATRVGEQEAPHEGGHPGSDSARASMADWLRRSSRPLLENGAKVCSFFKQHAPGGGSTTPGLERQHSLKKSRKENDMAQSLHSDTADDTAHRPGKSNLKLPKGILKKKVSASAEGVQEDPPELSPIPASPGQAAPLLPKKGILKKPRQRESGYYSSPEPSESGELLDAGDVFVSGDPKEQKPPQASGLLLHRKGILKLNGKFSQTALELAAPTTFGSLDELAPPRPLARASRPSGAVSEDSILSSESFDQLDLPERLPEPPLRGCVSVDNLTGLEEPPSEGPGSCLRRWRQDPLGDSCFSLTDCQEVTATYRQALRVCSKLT

Row | Compound | Kd
7 | Cc1ccc(S(=O)(=O)Nc2nc3ccccc3nc2Nc2ccc3nsnc3c2)cc1 | > 30 µM (inactive)
8 | CCN1CCN(Cc2ccc(-c3cc4c(N[C@H](C)c5ccccc5)ncnc4[nH]3)cc2)CC1 [AEE-788] | > 30 µM (inactive)
9 | Cn1ncc(Cl)c1-c1cc(C(=O)N[C@H](CN)Cc2cccc(F)c2)sc1Cl [AFURESERTIB] | > 30 µM (inactive)
10 | COc1cc(N2CCC(N3CCN(C)CC3)CC2)ccc1Nc1ncnc(Nc2ccccc2S(=O)(=O)C(C)C)n1 [ASP-3026] | > 30 µM (inactive)
11 | COc1cc(CCc2cc(NC(=O)c3ccc(N4C[C@@H](C)N[C@@H](C)C4)cc3)n[nH]2)cc(OC)c1 [AZD-4547] | > 30 µM (inactive)

target: DNA topoisomerase 2-beta (Homo sapiens, UniProt Q02880)
Sequence (Q02880 whole entry): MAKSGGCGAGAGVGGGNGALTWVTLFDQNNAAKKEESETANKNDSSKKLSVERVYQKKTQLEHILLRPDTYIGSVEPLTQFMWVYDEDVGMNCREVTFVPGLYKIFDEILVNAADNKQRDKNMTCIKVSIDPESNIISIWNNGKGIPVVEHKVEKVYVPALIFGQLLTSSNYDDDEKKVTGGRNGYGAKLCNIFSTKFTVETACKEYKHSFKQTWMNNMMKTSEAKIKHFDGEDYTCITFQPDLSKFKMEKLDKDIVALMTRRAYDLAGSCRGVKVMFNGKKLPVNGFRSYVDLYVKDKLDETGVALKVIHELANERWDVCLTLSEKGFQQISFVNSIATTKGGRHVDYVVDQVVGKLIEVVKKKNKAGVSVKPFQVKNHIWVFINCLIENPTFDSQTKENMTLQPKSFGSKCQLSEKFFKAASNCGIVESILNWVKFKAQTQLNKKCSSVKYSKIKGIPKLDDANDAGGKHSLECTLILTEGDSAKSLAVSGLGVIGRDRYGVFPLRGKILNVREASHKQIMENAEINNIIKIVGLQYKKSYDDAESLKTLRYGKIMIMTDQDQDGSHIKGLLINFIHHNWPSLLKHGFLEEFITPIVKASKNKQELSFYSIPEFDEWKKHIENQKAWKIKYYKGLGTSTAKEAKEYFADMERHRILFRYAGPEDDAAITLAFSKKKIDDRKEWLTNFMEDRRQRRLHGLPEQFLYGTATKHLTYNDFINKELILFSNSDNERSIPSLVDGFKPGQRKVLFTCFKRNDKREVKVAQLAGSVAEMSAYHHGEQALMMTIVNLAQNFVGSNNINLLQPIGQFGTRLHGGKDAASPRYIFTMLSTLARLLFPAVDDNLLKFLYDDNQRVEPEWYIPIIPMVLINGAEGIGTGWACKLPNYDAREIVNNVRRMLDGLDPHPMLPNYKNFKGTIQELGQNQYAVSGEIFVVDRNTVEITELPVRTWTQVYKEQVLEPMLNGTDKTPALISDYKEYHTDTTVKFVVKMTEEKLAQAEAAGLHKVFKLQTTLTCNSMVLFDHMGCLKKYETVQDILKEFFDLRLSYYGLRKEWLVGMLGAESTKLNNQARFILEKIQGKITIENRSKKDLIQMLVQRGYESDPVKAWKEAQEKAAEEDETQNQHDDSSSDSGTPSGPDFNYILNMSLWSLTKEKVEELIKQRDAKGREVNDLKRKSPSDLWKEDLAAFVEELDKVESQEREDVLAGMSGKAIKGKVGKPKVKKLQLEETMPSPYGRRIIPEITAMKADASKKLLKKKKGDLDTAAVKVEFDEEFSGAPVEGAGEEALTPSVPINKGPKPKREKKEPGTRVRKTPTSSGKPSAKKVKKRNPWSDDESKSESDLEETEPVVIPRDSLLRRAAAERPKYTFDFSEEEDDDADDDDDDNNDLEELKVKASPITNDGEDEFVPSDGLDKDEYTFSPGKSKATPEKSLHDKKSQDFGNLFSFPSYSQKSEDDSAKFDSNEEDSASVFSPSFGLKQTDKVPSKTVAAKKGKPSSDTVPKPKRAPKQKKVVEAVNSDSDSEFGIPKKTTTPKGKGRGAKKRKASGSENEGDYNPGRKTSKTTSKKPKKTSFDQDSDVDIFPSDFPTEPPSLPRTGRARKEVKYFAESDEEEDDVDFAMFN

Row | Compound | Kd
12 | Cc1ccc(S(=O)(=O)Nc2nc3ccccc3nc2Nc2ccc3nsnc3c2)cc1 | > 30 µM (inactive)
13 | CCN1CCN(Cc2ccc(-c3cc4c(N[C@H](C)c5ccccc5)ncnc4[nH]3)cc2)CC1 [AEE-788] | > 30 µM (inactive)
14 | Cn1ncc(Cl)c1-c1cc(C(=O)N[C@H](CN)Cc2cccc(F)c2)sc1Cl [AFURESERTIB] | > 30 µM (inactive)
15 | COc1cc(N2CCC(N3CCN(C)CC3)CC2)ccc1Nc1ncnc(Nc2ccccc2S(=O)(=O)C(C)C)n1 [ASP-3026] | > 30 µM (inactive)
16 | COc1cc(CCc2cc(NC(=O)c3ccc(N4C[C@@H](C)N[C@@H](C)C4)cc3)n[nH]2)cc(OC)c1 [AZD-4547] | > 30 µM (inactive)
17 | O=C(c1ccc(F)c(F)c1Nc1ccc(I)cc1F)N1CC(O)([C@@H]2CCCCN2)C1 [COBIMETINIB] | > 30 µM (inactive)

target: T2, Acyl-CoA dehydrogenase family member 10 (Homo sapiens, UniProt Q6JQN1)
T2 sequence (Q6JQN1 whole entry): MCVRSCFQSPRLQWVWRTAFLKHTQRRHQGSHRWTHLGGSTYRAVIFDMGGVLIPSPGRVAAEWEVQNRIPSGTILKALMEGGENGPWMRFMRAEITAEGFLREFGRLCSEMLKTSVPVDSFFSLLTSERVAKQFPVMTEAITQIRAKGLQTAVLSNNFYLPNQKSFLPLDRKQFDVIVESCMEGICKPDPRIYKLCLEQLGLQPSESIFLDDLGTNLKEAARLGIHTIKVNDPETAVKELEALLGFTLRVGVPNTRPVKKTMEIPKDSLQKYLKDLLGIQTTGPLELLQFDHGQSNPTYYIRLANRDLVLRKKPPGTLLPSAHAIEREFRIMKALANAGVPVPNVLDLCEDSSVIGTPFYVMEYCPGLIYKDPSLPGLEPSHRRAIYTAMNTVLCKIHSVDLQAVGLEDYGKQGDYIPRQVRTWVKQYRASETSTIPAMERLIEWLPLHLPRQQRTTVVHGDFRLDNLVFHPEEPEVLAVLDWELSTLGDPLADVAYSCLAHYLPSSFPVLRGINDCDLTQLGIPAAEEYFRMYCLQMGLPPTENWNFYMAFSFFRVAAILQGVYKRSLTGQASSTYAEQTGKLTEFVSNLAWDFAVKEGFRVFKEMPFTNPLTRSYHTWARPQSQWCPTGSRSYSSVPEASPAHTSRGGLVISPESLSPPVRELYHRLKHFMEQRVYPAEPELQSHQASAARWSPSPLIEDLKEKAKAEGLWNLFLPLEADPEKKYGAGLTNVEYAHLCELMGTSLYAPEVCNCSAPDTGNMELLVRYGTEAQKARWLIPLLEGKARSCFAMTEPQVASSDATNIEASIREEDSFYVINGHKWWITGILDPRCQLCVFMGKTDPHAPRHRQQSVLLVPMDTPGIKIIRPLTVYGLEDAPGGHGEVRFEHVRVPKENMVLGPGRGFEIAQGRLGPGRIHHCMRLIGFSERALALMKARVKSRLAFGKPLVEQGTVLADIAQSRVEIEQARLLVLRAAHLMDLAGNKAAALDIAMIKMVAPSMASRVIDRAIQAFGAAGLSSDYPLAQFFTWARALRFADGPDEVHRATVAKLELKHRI

Row | Compound | Kd
18 | Cc1ccc(S(=O)(=O)Nc2nc3ccccc3nc2Nc2ccc3nsnc3c2)cc1 | > 30 µM (inactive)
19 | COc1cc(CCc2cc(NC(=O)c3ccc(N4C[C@@H](C)N[C@@H](C)C4)cc3)n[nH]2)cc(OC)c1 [AZD-4547] | > 30 µM (inactive)
20 | O=C(c1ccc(F)c(F)c1Nc1ccc(I)cc1F)N1CC(O)([C@@H]2CCCCN2)C1 [COBIMETINIB] | > 30 µM (inactive)

target: Mitogen-activated protein kinase kinase kinase kinase 4 (Homo sapiens, UniProt O95819)
Sequence (O95819 whole entry): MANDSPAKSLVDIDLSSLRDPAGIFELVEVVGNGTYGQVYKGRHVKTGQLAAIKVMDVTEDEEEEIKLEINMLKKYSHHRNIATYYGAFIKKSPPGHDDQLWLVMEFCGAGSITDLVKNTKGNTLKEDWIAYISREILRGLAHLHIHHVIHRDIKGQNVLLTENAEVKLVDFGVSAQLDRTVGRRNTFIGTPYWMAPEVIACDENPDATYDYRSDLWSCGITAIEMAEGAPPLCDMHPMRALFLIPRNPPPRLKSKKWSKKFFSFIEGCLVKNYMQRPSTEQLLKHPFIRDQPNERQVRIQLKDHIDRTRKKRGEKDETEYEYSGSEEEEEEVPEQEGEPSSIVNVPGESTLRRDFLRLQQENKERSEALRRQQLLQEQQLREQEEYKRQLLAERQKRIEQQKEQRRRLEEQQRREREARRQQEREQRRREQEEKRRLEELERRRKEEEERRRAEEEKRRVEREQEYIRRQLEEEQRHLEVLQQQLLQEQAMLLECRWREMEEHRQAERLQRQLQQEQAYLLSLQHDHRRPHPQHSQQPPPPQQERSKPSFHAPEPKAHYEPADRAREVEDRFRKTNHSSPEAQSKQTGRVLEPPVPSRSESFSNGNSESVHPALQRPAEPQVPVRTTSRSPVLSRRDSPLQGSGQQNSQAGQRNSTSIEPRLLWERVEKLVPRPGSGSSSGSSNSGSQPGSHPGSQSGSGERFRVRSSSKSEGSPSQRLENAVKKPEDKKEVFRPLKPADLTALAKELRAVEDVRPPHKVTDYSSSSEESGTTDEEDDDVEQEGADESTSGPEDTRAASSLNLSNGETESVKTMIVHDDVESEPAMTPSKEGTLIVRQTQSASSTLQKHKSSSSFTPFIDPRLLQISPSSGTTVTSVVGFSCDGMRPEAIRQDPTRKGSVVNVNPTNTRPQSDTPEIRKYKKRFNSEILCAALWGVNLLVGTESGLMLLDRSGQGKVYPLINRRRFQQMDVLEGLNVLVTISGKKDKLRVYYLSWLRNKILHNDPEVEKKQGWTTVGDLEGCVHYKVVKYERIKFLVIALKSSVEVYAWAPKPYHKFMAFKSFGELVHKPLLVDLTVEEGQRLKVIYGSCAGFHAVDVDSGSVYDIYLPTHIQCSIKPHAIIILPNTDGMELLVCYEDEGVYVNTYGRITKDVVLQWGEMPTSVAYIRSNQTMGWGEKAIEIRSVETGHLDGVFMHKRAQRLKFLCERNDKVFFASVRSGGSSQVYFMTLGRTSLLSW

Row | Compound | Kd
21 | Cc1ccc(S(=O)(=O)Nc2nc3ccccc3nc2Nc2ccc3nsnc3c2)cc1 | > 30 µM (inactive)
22 | CCN1CCN(Cc2ccc(-c3cc4c(N[C@H](C)c5ccccc5)ncnc4[nH]3)cc2)CC1 [AEE-788] | 7.98 µM (active)
23 | Cn1ncc(Cl)c1-c1cc(C(=O)N[C@H](CN)Cc2cccc(F)c2)sc1Cl [AFURESERTIB] | > 30 µM (inactive)
24 | COc1cc(N2CCC(N3CCN(C)CC3)CC2)ccc1Nc1ncnc(Nc2ccccc2S(=O)(=O)C(C)C)n1 [ASP-3026] | > 30 µM (inactive)
25 | COc1cc(CCc2cc(NC(=O)c3ccc(N4C[C@@H](C)N[C@@H](C)C4)cc3)n[nH]2)cc(OC)c1 [AZD-4547] | > 30 µM (inactive)
26 | O=C(c1ccc(F)c(F)c1Nc1ccc(I)cc1F)N1CC(O)([C@@H]2CCCCN2)C1 [COBIMETINIB] | > 30 µM (inactive)

target: Fibroblast growth factor receptor 1 (Homo sapiens, UniProt P11362)
Sequence (P11362 whole entry): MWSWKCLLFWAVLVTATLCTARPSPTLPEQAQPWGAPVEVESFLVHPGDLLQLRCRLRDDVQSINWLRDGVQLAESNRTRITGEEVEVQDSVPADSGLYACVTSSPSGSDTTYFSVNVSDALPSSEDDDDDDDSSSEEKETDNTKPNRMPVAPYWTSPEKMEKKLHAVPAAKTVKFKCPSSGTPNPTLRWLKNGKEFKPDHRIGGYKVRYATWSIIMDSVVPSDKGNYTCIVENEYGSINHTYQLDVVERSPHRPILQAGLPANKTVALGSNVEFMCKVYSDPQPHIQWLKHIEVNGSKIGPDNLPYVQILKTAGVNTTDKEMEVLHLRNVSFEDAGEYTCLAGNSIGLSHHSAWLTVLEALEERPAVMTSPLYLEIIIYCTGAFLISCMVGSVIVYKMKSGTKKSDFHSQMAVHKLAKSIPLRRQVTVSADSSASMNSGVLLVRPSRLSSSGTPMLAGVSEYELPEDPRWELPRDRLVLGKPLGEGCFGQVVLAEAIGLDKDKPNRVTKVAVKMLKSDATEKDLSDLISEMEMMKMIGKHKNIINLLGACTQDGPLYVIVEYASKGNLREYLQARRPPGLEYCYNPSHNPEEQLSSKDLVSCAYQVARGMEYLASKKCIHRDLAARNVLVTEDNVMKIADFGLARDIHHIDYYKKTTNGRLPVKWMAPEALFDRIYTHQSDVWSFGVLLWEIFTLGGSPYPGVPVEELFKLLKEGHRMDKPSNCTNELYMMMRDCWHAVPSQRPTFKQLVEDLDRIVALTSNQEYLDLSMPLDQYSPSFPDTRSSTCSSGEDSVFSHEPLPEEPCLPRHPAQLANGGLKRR

Row | Compound | Kd
27 | Cc1ccc(S(=O)(=O)Nc2nc3ccccc3nc2Nc2ccc3nsnc3c2)cc1 | > 30 µM (inactive)
28 | CCN1CCN(Cc2ccc(-c3cc4c(N[C@H](C)c5ccccc5)ncnc4[nH]3)cc2)CC1 [AEE-788] | > 30 µM (inactive)
29 | Cn1ncc(Cl)c1-c1cc(C(=O)N[C@H](CN)Cc2cccc(F)c2)sc1Cl [AFURESERTIB] | > 30 µM (inactive)
30 | COc1cc(N2CCC(N3CCN(C)CC3)CC2)ccc1Nc1ncnc(Nc2ccccc2S(=O)(=O)C(C)C)n1 [ASP-3026] | > 30 µM (inactive)
31 | O=C(c1ccc(F)c(F)c1Nc1ccc(I)cc1F)N1CC(O)([C@@H]2CCCCN2)C1 [COBIMETINIB] | > 30 µM (inactive)

target: T3, Serine/threonine-protein kinase 4 (Homo sapiens, UniProt Q13043)
T3 sequence (Q13043 whole entry): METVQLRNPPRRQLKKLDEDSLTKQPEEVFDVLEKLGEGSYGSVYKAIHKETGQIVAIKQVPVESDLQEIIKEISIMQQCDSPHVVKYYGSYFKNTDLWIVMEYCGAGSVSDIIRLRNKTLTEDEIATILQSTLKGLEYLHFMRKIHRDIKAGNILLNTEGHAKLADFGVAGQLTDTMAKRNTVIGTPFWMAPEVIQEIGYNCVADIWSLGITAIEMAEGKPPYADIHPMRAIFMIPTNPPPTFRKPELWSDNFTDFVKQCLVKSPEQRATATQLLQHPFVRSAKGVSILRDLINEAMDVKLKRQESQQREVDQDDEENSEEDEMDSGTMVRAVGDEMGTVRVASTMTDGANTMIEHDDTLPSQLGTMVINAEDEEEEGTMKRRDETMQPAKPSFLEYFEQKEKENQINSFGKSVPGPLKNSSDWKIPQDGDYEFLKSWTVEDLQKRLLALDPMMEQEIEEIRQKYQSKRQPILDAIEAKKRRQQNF

Row | Compound | Kd
32 | Cc1ccc(S(=O)(=O)Nc2nc3ccccc3nc2Nc2ccc3nsnc3c2)cc1 | > 30 µM (inactive)
33 | CCN1CCN(Cc2ccc(-c3cc4c(N[C@H](C)c5ccccc5)ncnc4[nH]3)cc2)CC1 [AEE-788] | > 30 µM (inactive)
34 | Cn1ncc(Cl)c1-c1cc(C(=O)N[C@H](CN)Cc2cccc(F)c2)sc1Cl [AFURESERTIB] | > 30 µM (inactive)
35 | COc1cc(N2CCC(N3CCN(C)CC3)CC2)ccc1Nc1ncnc(Nc2ccccc2S(=O)(=O)C(C)C)n1 [ASP-3026] | > 30 µM (inactive)
36 | COc1cc(CCc2cc(NC(=O)c3ccc(N4C[C@@H](C)N[C@@H](C)C4)cc3)n[nH]2)cc(OC)c1 [AZD-4547] | > 30 µM (inactive)
37 | O=C(c1ccc(F)c(F)c1Nc1ccc(I)cc1F)N1CC(O)([C@@H]2CCCCN2)C1 [COBIMETINIB] | > 30 µM (inactive)

target: LIM domain kinase 1 (Homo sapiens, UniProt P53667)
Sequence (P53667 whole entry, the tested form may be a part): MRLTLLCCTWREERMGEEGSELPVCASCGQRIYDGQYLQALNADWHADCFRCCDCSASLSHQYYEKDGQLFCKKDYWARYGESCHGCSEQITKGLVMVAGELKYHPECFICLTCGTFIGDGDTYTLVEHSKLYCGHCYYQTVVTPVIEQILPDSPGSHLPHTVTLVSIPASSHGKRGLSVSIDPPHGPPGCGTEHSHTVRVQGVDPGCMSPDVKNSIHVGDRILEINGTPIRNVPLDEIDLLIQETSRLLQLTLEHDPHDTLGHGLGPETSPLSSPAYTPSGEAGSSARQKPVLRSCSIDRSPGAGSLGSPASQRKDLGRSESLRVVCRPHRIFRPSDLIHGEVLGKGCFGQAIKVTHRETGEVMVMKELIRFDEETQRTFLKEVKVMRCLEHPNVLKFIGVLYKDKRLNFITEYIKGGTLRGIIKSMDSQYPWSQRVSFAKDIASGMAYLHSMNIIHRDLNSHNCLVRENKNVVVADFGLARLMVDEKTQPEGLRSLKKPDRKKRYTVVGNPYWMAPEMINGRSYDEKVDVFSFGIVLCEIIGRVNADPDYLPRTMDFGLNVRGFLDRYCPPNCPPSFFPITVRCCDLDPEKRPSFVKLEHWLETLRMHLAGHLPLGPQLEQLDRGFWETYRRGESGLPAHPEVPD

Row | Compound | Kd
38 | Cc1ccc(S(=O)(=O)Nc2nc3ccccc3nc2Nc2ccc3nsnc3c2)cc1 | > 30 µM (inactive)
39 | CCN1CCN(Cc2ccc(-c3cc4c(N[C@H](C)c5ccccc5)ncnc4[nH]3)cc2)CC1 [AEE-788] | 0.632 µM (active)
40 | Cn1ncc(Cl)c1-c1cc(C(=O)N[C@H](CN)Cc2cccc(F)c2)sc1Cl [AFURESERTIB] | > 30 µM (inactive)
41 | COc1cc(N2CCC(N3CCN(C)CC3)CC2)ccc1Nc1ncnc(Nc2ccccc2S(=O)(=O)C(C)C)n1 [ASP-3026] | 3.98 µM (active)
42 | COc1cc(CCc2cc(NC(=O)c3ccc(N4C[C@@H](C)N[C@@H](C)C4)cc3)n[nH]2)cc(OC)c1 [AZD-4547] | > 30 µM (inactive)
43 | O=C(c1ccc(F)c(F)c1Nc1ccc(I)cc1F)N1CC(O)([C@@H]2CCCCN2)C1 [COBIMETINIB] | > 30 µM (inactive)
